Measurements: EP0086590A1, “Antibacterial agents, their preparation and use” (priority 1982, dated 1983)
Values after ≈ are worked out from the molar mass of the structure shown. Structures can show the parent of a compound that is named as a salt.

Key:
Streptococcus faecalis I = test: Antibacterial activity (mic); format: cell-based; conditions: Enterococcus faecalis
Bacillus subtilis A = test: Antibacterial activity (mic); format: cell-based
Proteus morganii 1580 = test: Antibacterial activity (mic); format: cell-based; conditions: Morganella morganii
Proteus rettgeri WM16 = test: Antibacterial activity (mic); format: cell-based; conditions: Providencia rettgeri
[1] = test system: Staphylococcus aureus Russell; test: Antibacterial activity (mic); format: cell-based
Proteus mirabilis 977 = test: Antibacterial activity (mic); format: cell-based
[2] = test system: Serratia marcescens NEU3974; test: Antibacterial activity (mic); format: cell-based
Escherichia coli ESS = test: Antibacterial activity (mic); format: cell-based
Pseudomonas aeruginosa A = test: Antibacterial activity (mic); format: cell-based
Escherichia coli 0111 = test: Antibacterial activity (mic); format: cell-based
Escherichia coli JT39 R+ = test: Antibacterial activity (mic); format: cell-based
Klebsiella aerogenes A = test: Antibacterial activity (mic); format: cell-based
[3] = Effect of serum on antibacterial activity; format: cell-based
Enterobacter cloacae N1 = test: Antibacterial activity (mic); format: cell-based
[4] = test system: Pseudomonas aeruginosa Dalgleish; test: Antibacterial activity (mic); format: cell-based
[5] = test system: Staphylococcus aureus Oxford; test: Antibacterial activity (mic); format: cell-based
[6] = Mouse urinary recovery of antibacterial agent; format: in vivo; conditions: urine, sc, 10 mg/kg s/c, parent antibacterial agent administered alone
Protocol: By way of comparison. the parent antibacterial agent of the compound of Example 2 (ie sodium salt of [-2-acetamido- ethenylthio]-6-(I-hydroxysulphonyloxyethyl)-7-oxo-l-azabicyclo[3.2.0]hept-2-ene-2-carboxylic acid) was administered together with the corresponding dipeptidase inhibitor (ie 2-isovaleramidobut-2-ene) in a 1:1 relationship. […] However, since the compound of Example 2 liberates an approximate ratio of 2:1 by weight of antibacterial agent to inhibitor, the compound of Example 2 makes much more efficient use of the dipeptidase inhibitor.

Proteus mirabilis 13 = test: Antibacterial activity (mic); format: cell-based
[7] = test system: Pseudomonas aeruginosa 11; test: Antibacterial activity (mic); format: cell-based
Escherichia coli E96 R+ = test: Antibacterial activity (mic); format: cell-based
Serratia marcescens US20 = test: Antibacterial activity (mic); format: cell-based
Escherichia coli E8 = test: Antibacterial activity (mic); format: cell-based

| dose excreted [6] | Structure (SMILES) | MIC (Streptococcus faecalis I) | MIC (Bacillus subtilis A) | MIC (Proteus morganii 1580) | MIC (Proteus rettgeri WM16) | MIC [1] | MIC (Proteus mirabilis 977) | MIC (Escherichia coli ESS) | MIC (Pseudomonas aeruginosa A) | MIC (Escherichia coli 0111) | MIC (Escherichia coli JT39 R+) | MIC (Klebsiella aerogenes A) | Effect of serum on activity [3] | MIC (Enterobacter cloacae N1) | MIC [4] | MIC [5] | MIC [7] | MIC (Escherichia coli E96 R+) | MIC (Serratia marcescens US20) | MIC (Escherichia coli E8) | further results |
| --- | --- | --- | --- | --- | --- | --- | --- | --- | --- | --- | --- | --- | --- | --- | --- | --- | --- | --- | --- | --- | --- |
|  | C/C=C(\NC(=O)CC(C)C)C(=O)OCOC(=O)C1=C(Sc2ncccn2)C[C@@H]2[C@@H]([C@@H](C)O)C(=O)N12 (racemic) [Example 3, 2-Isovaleramidobut-2Z-enoyloxymethyl 5(R,S),6(S,R)-3-(pyrimidin-2-ylthio)-6-[l(R,S)-hydroxyethyl]-7-oxo-1-azabicyclo[3.2.0]hept-2-ene-2-carboxylate] | 50 µg/mL (≈ 99.1 µM) | 0.8 µg/mL (≈ 1.59 µM) | 25 µg/mL (≈ 49.5 µM) | 25 µg/mL (≈ 49.5 µM) | 0.8 µg/mL (≈ 1.59 µM) | 12.5 µg/mL (≈ 24.8 µM) | 1.6 µg/mL (≈ 3.17 µM) | > 100 µg/mL | 6.2 µg/mL (≈ 12.3 µM) | 3.1 µg/mL (≈ 6.14 µM) | 3.1 µg/mL (≈ 6.14 µM) | 10-20 fold | 25 µg/mL (≈ 49.5 µM) | > 100 µg/mL | 0.8 µg/mL (≈ 1.59 µM) |  |  |  |  | MIC [2]: 100 µg/mL (≈ 198 µM) |
| 0.3% | CC(=O)NC=CSC1=C(C(=O)O)N2C(=O)C(C(C)O)C2C1 [(A), Sodium (5R,6R)-3-[(E)-2-acetamidoethenylthio]-6-[(S)-1-hydroxyethyl]-7-axo-1-azabicyclo[3.2.0]hept-2-ene-2-carboxylate] |  |  |  |  |  |  |  |  |  |  |  |  |  |  |  |  |  |  |  |  |
| 1.5% | CC(=O)NC=CSC1=C(C(=O)O)N2C(=O)C(C(C)OS(=O)(=O)O)C2C1 (stereo not drawn) [(B), sodium salt of [-2-acetamido-ethenylthio]-6-(I-hydroxysulphonyloxyethyl)-7-oxo-l-azabicyclo[3.2.0]hept-2-ene-2-carboxylic acid] |  |  |  |  |  |  |  |  |  |  |  |  |  |  |  |  |  |  |  |  |
|  | C/C=C(\NC(=O)CC(C)C)C(=O)OCOC(=O)C1=C(S/C=C/NC(C)=O)C[C@@H]2[C@H]([C@H](C)O)C(=O)N12 [Example 1, 2-Isovaleramidobut-2Z-enoyloxymethyl (5R,6R)-3-[(E)-2-acetamidoethenylthio]-6-[(S)-1-hydroxyethyl]-7-oxo-1-azabicyclo[3.2.0]hept-2-ene-2-carboxylate] | 3.1 µg/mL (≈ 6.08 µM) | 0.4 µg/mL (≈ 0.785 µM) | 25 µg/mL (≈ 49.1 µM) | 6.2 µg/mL (≈ 12.2 µM) | 0.8 µg/mL (≈ 1.57 µM) | 3.1 µg/mL (≈ 6.08 µM) | 0.2 µg/mL (≈ 0.392 µM) | > 100 µg/mL | 0.8 µg/mL (≈ 1.57 µM) | 25 µg/mL (≈ 49.1 µM) | 6.2 µg/mL (≈ 12.2 µM) | 2-8 fold | 6.2 µg/mL (≈ 12.2 µM) | 100 µg/mL (≈ 196 µM) | 0.4 µg/mL (≈ 0.785 µM) | 100 µg/mL (≈ 196 µM) | 100 µg/mL (≈ 196 µM) | 6.2 µg/mL (≈ 12.2 µM) | 0.8 µg/mL (≈ 1.57 µM) | MIC (Proteus mirabilis 13): 0.8 µg/mL (≈ 1.57 µM) |
|  | CC=C(NC(=O)CC(C)C)C(=O)OCOC(=O)C1=C(SC=CNC(C)=O)CC2C(C(C)OS(=O)(=O)O)C(=O)N12 [Example 2, Sodium salt of 2-Isovaleramidobut-2Z-en-oyloxymethyl (5R,6R)-3-[(E)-2-acetamidoethenylthio]-6-[(S)-l-hydroxysulphonyloxyethyl]-7-oxo-l-azabicyclo[3.2.0]hept 2-ene-2-carboxylate] | 50 µg/mL | 1.6 µg/mL |  | 0.8 µg/mL | 3.1 µg/mL | 3.1 µg/mL | 1.6 µg/mL | 100 µg/mL | 3.1 µg/mL | 1.6 µg/mL | 0.4 µg/mL | 2-4 fold | 3.1 µg/mL | 100 µg/mL | 1.6 µg/mL | 100 µg/mL | 12.5 µg/mL | 6.2 µg/mL | 6.2 µg/mL |  |
